Reference: patent US8071612B2, “6-alkenyl and 6-phenylalkyl substituted 2-quinolinones and 2-quinoxalinones as poly(ADP-ribose) polymerase inhibitors” (Janssen Pharmaceutica, NV, priority 2004, dated 2011)

Columns and labels:
[1] = biological target: T1, PARP-1 enzyme (Homo sapiens, UniProt P09874); assay: In vitro Scintillation Proximity Assay (SPA) for PARP-1 inhibitory activity; type: biochemical; settings: nicked DNA activated PARP-1, [3H]-NAD+, biotinylated histones; read-out: In vitro SPA pIC50 (converted)
T1 construct: made in house
Description: Compounds of the present invention were tested in an in vitro assay based on SPA technology (proprietary to Amersham Pharmacia Biotech).
In principle, the assay relies upon the well established SPA technology for the detection of poly(ADP-ribosyl)ation of biotinylated target proteins, i.e histones. This ribosylation is induced using nicked DNA activated PARP-1 enzyme and [^3H]-nicotinamide adenine dinucleotide ([^3H]-NAD^+) as ADP-ribosyl donor.
As inducer of PARP-1 enzyme activity, nicked DNA was prepared. For this, 25 mg of DNA (supplier: Sigma) was dissolved in 25 ml DNAse buffer (10 mM Tris-HCl, pH 7.4; 0.5 mg/ml Bovine Serum Albumine (BSA); 5 mM MgCl2.6H2O and 1 mM KCl) to which 50 μl DNAse solution (1 mg/ml in 0.15 M NaCl) was added. After an incubation of 90 min. at 37° C., the reaction was terminated by adding 1.45 g NaCl, followed by a further incubation at 58° C. for 15 min. The reaction mixture was cooled on ice and dialysed at 4° C. for respectively 1.5 and 2 hours against 1.5 l of 0.2 M KCl, and twice against 1.5 l of 0.01 M KCl for 1.5 and 2 h respectively. The mixture was aliquoted and stored at −20° C. Histones (1 mg/ml, type II-A, supplier: Sigma) were biotinylated using the biotinylation kit of Amersham and stored aliquoted at −20° C. A stock solution of 100 mg/ml SPA poly(vinyl toluene) (PVT) beads (supplier: Amersham) was made in PBS. A stock solution of [^3]H-NAD^+ was made by adding 120 μl of [^3H]-NAD^+ (0.1 mCi/ml, supplier: NEN) to 6 ml incubation buffer (50 mM Tris/HCl, pH 8; 0.2 mM DTT; 4 mM MgCl2). A solution of 4 mM NAD^+ (supplier: Roche) was made in incubation buffer (from a 100 mM stock solution in water stored at −20° C.). The PARP-1 enzyme was produced using art known techniques, i.e. cloning and expression of the protein starting from human liver cDNA. Information concerning the used protein sequence of the PARP-1 enzyme including literature references can be found in the Swiss-Prot database under primary accession number P09874. Biotinylated histones and PVT-SPA beads were mixed and pre-incubated for 30 min. at room temperature. PARP-1 enzyme (concentration was lot dependent) was mixed with the nicked DNA and the mixture was pre-incubated for 30 min. at 4° C. Equal parts of this histones/PVT-SPA beads solution and PARP-1 enzyme/DNA solution were mixed and 75 μl of this mixture together with 1 μl of compound in DMSO and 25 μl of [^3H]-NAD^+ was added per well into a 96-well microtiterplate. The final concentrations in the incubation mixture were 2 μg/ml for the biotinylated histones, 2 mg/ml for the PVT-SPA beads, 2 μg/ml for the nicked DNA and between 5-10 μg/ml for the PARP-1 enzyme. After incubation of the mixture for 15 min. at room temperature, the reaction was terminated by adding 100 μl of 4 mM NAD^+ in incubation buffer (final concentration 2 mM) and plates were mixed.
The beads were allowed to sediment for at least 15 min. and plates transferred to a TopCountNXT™ (Packard) for scintillation counting, values were expressed as counts per minute (cpm). For each experiment, controls (containing PARP-1 enzyme and DMSO without compound), a blank incubation (containing DMSO but no PARP-1 enzyme or compound) and samples (containing PARP-1 enzyme and compound dissolved in DMSO) were run in parallel. All compounds tested were dissolved and eventually further diluted in DMSO. In first instance, compounds were tested at a concentration of 10^−5 M or 10^−6M. […] In each test, the blank value was subtracted from both the control and the sample values. The control sample represented maximal PARP-1 enzyme activity. For each sample, the amount of cpm was expressed as a percentage of the mean cpm value of the controls. When appropriate, IC50-values (concentration of the drug, needed to reduce the PARP-1 enzyme activity to 50% of the control) were computed using linear interpolation between the experimental points just above and below the 50% level. […]

[2] = biological target: T1, PARP-1 enzyme; assay: In vitro filtration assay for PARP-1 inhibitory activity; type: biochemical; settings: nicked DNA activated PARP-1, [32P]-NAD, histones; read-out: In vitro filtration assay pIC50 (converted)
Description: Compounds of the present invention were tested in an in vitro filtration assay assessing PARP-1 activity (triggered in the presence of nicked DNA) by means of its histone poly (ADP-ribosyl)ation activity using [^32P]-NAD as ADP-ribosyl donor. The radioactive ribosylated histones were precipitated by trichloroacetic acid (TCA) in 96-well filterplates and the incorporated [^32P] measured using a scintillation counter
A mixture of histones (stock solution: 5 mg/ml in H2O), NAD (stock solution: 100 mM in H2O), and [^32P]-NAD^+ in incubation buffer (50 mM Tris/HCl, pH 8; 0.2 mM DTT; 4 mM MgCl2) was made. A mixture of the PARP-1 enzyme (5-10 μg/ml) and nicked DNA was also made. The nicked DNA was prepared as described in the in vitro SPA for PARP-1 inhibitory activity. Seventy-five μl of the PARP-1 enzyme/DNA mixture together with 1 μl of compound in DMSO and 25 μl of histones-NAD^+/[^32P]-NAD^+ mixture was added per well of a 96-well filterplate (0.45 μm, supplier Millipore). The final concentrations in the incubation mixture were 2 μg/ml for the histones, 0.1 mM for the NAD^+, […] (0.5 μC) for the [^32P]-NAD^+ and 2 μg/ml for the nicked DNA. Plates were incubated for 15 min. at room temperature and the reaction was terminated by the addition of 10 μl ice cold 100% TCA followed by the addition of 10 μl ice-cold BSA solution (1% in H2O). The protein fraction was allowed to precipitate for 10 min. at 4° C. and plates were vacuum filtered. The plates were subsequently washed with, for each well, 1 ml of 10% ice cold TCA, 1 ml of 5% ice cold TCA and 1 ml of 5% TCA at room temperature. Finally 100 μl of scintillation solution (Microscint 40, Packard) was added to each well and the plates were transferred to a TopCountNXT™ (supplier: Packard) for scintillation counting and values were expressed as counts per minute (cpm). For each experiment, controls (containing PARP-1 enzyme and DMSO without compound), a blank incubation (containing DMSO but no PARP-1 enzyme or compound) and samples (containing PARP-1 enzyme and compound dissolved in DMSO) were run in parallel. All compounds tested were dissolved and eventually further diluted in DMSO. In first instance, compounds were tested at a concentration of 10^−5M. […] In each test, the blank value was subtracted from both the control and the sample values. The control sample represented maximal PARP-1 enzyme activity. For each sample, the amount of cpm was expressed as a percentage of the mean cpm value of the controls. When appropriate, IC50-values (concentration of the drug, needed to reduce the PARP-1 enzyme activity to 50% of the control) were computed using linear interpolation between the experimental points just above and below the 50% level. Herein the effects of test compounds are expressed as pIC50 (the negative log value of the IC50-value). As a reference compound, 4-amino-1,8-naphthalimide was included to validate the filtration assay.

T1 sequence (P09874 whole entry): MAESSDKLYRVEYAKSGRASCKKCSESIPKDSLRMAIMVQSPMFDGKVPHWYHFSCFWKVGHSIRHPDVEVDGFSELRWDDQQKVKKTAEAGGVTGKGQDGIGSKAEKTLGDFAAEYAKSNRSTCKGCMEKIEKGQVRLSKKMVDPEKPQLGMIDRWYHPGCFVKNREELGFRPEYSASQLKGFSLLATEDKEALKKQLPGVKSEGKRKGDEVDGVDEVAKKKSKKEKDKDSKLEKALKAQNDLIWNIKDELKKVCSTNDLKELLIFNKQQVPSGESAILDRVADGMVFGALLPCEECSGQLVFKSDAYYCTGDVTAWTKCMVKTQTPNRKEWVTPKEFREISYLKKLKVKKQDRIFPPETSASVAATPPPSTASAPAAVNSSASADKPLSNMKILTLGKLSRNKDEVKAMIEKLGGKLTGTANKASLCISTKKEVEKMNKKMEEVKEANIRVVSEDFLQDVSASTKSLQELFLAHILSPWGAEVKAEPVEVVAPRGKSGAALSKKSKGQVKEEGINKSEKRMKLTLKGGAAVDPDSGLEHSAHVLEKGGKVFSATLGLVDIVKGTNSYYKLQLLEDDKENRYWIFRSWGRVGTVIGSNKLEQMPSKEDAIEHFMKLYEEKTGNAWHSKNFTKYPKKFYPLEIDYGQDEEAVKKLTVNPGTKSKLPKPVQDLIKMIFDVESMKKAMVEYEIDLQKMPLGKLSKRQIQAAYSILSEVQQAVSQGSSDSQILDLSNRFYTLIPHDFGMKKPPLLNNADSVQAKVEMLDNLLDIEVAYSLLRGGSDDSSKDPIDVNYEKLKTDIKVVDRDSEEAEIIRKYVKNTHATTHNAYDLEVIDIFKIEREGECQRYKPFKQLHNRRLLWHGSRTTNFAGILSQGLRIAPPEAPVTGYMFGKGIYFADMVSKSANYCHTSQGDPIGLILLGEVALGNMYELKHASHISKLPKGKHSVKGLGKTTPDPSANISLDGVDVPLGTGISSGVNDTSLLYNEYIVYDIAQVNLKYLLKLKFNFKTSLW

Compound	IC50 [1] [µM]	melting point [°C]	IC50 [2] [µM]
CCc1cc2cc(C(=C3CCN(CCc4ccc(OC)cc4)CC3)c3ccc4c(c3)OCCO4)ccc2[nH]c1=O [Compound 132]	0.0571	203	
CCc1cc2cc(/C(=C\CN(C)C)c3ccccc3)ccc2[nH]c1=O [Compound 140]	0.431		2.15
CCc1cc2cc([C@H](CCN3CCCCC3)c3ccc4c(c3)OCCO4)ccc2[nH]c1=O (single isomer, unassigned) [Compound 145]		172	
Cc1cc2cc(C(NC=O)c3ccccc3)ccc2[nH]c1=O (stereo not drawn) [Compound 106]	0.493		1.68
Cc1cc2cc(C(O)c3ccc4c(c3)OCO4)ccc2[nH]c1=O (stereo not drawn) [Compound 111]	0.611		4.43
Cc1cc2cc(C(c3ccccc3)C3CCCN(C)C3)ccc2[nH]c1=O (stereo not drawn) [Compound 88]	0.264		4.07
Cc1cc2cc(C(NC=O)c3ccc(F)cc3)ccc2[nH]c1=O (stereo not drawn) [Compound 102]	0.366		1.59
Cc1cc2cc(C(c3ccc(Cl)cc3)n3ccnc3)ccc2[nH]c1=O (stereo not drawn) [Compound 95]	0.818		6.35
CCc1cc2cc(C(c3ccc(Cl)cc3)N3CCC(NCCOC)CC3)ccc2[nH]c1=O (stereo not drawn) [Compound 86]	0.292		2.24
Cc1cc2cc(C(c3cccc(Cl)c3)n3ccnc3)ccc2[nH]c1=O (stereo not drawn) [Compound 94]	0.665		3.56
Cc1cc2cc(C(c3ccccc3)c3cncn3C)ccc2[nH]c1=O (stereo not drawn) [Compound 10]	0.711		2.39
Cc1cc2cc(C(C)(C#N)c3ccccc3)ccc2[nH]c1=O (stereo not drawn) [Compound 85]	0.189		1.19
CCc1cc2cc(C(OCCN(C)C)c3ccccc3)ccc2[nH]c1=O (stereo not drawn) [Compound 28]	0.226		0.773
C#CC(O)(c1ccccc1)c1ccc2[nH]c(=O)c(C)cc2c1 (stereo not drawn) [Compound 112]	0.689		2.71
CCc1nc2cc(CC(=O)c3ccc(Cl)cc3)ccc2[nH]c1=O [Compound 113]	0.556		5.93
Cc1cc2cc(/C(=C3\CCCN(C)C3)c3ccccc3)ccc2[nH]c1=O [Compound 134]	0.299		1.56
CCc1cc2cc(C(c3ccccc3)N3CCC(NCCOC)CC3)ccc2[nH]c1=O (stereo not drawn) [Compound 13]	0.22		2.11
Cc1cc2cc(C(CCN3CCCCC3)c3ccccc3)ccc2[nH]c1=O (stereo not drawn) [Compound 89]	0.451		2.68
CCc1cc2cc(C(c3ccccc3)N3CCN(C)CC3)ccc2[nH]c1=O (stereo not drawn) [Compound 39]	0.596		10
CCc1cc2cc(C(c3cccc(Cl)c3)N3CCC(=O)CC3)ccc2[nH]c1=O (stereo not drawn) [Compound 77]	0.252		1.74
Cc1cc2cc(C(NC=O)c3ccc(Cl)cc3)ccc2[nH]c1=O (stereo not drawn) [Compound 105]	0.618		1.47
CCc1cc2cc([C@@H](CCN3CCCCC3)c3ccc4c(c3)OCCO4)ccc2[nH]c1=O (single isomer, unassigned) [Compound 144]		159	

Now from value to compound:

IC50 [1] [µM]	melting point [°C]	IC50 [2] [µM]	Compound
0.124	219		CCc1cc2cc(C(=C3CCN(CC(O)COc4ccc(OC)cc4)CC3)c3ccc4c(c3)OCCO4)ccc2[nH]c1=O (stereo not drawn) [Compound 133]
0.0277	249		CCc1cc2cc(C(=C3CCNCC3)c3ccc4c(c3)OCCO4)ccc2[nH]c1=O [Compound 131]
0.573		2.25	CCc1nc2cc(C(c3ccc(Cl)cc3)n3ccnc3)ccc2[nH]c1=O (stereo not drawn) [Compound 126]
0.197		2.37	CCc1cc2cc(C(c3cccc(C(F)(F)F)c3)n3cncn3)ccc2[nH]c1=O (stereo not drawn) [Compound 78]
2.72		7.59	Cc1cc2cc(C(NCCCn3cccc3)c3ccccc3)ccc2[nH]c1=O (stereo not drawn) [Compound 24]
	240		Cc1cc2cc(C(c3ccccc3)c3cncn3C)ccc2[nH]c1=O (stereo not drawn) (hydrate or solvate) [Compound 10]
0.362		1.8	CCc1nc2cc(C(c3ccccc3)n3cncn3)ccc2[nH]c1=O (stereo not drawn) [Compound 30]
0.498		3.9	CC(=O)NCCNC(c1ccccc1)c1ccc2[nH]c(=O)c(C)cc2c1 (stereo not drawn) [Compound 25]
0.501		2.38	Cc1cc2cc(C(NC=O)c3cccc(Cl)c3)ccc2[nH]c1=O (stereo not drawn) [Compound 104]
0.508		2.15	Cc1cc2cc(C(c3ccccc3)N3CCCCC3)ccc2[nH]c1=O (stereo not drawn) [Compound 93]
0.274		3.83	Cc1cccc(C(NC=O)c2ccc3[nH]c(=O)c(C)cc3c2)c1 (stereo not drawn) [Compound 98]
0.668		4.12	CCc1cc2cc(/C(=C/CN(C)C)c3ccccc3)ccc2[nH]c1=O [Compound 139]
1.57		1.38	CCc1nc2cc(C(c3ccc(Cl)cc3)N3CCCCC3)ccc2[nH]c1=O (stereo not drawn) [Compound 124]
0.552		1.58	CCc1nc2cc(CC(c3ccc(Cl)cc3)N3CCCCC3)ccc2[nH]c1=O (stereo not drawn) [Compound 114]
